Test results reported in publication PMC3674157 (European journal of medicinal chemistry, 2013).

What was measured:
Format in all cases: cell-based
[1] = system: HeLa human cervical carcinoma cells; test: High-content analysis of mitotic arrest in HeLa cells; conditions: for mitotic arrest phenotype (immunostaining of α-tubulin, phosphohistone H3, Hoechst 33342): 1a 62 nM, 2c 940 nM, 3a 470 nM; for MDEC Nuclear condensation / MDEC Tubulin intensity: HCS assay, minimum detectable effective concentration
[2] = system: MDA-MB-231 human breast cancer cells; test: Wound healing; conditions: three different concentrations
[3] = system: REH human acute lymphoblastic leukemia cells; test: REH cytotoxicity, MTT assay; conditions: REH and JURKAT versus NIH3T3, HUVEC

Row | Structure (SMILES) | mitotic arrest phenotype (immunostaining of α-tubulin, phosphohistone H3, Hoechst 33342) [1] | MDEC Nuclear condensation [1] | MDEC Tubulin intensity [1] | cell migration in the scratch wound assay [2] | selectivity, nontransformed cells (NIH3T3, HUVEC, PBMC) compared with the two human tumor cell lines [3]
1 | COc1cc2c(c(OC)c1OC)-c1ccc(OC)c(=O)cc1[C@@H](NC(C)=O)CC2 [Compound 1a, colchicine, reference compound] | tubulin disorganization, increased number of phosphohistone H3-positive cells, chromatin condensation, and nuclear fragmentation | 12.0 ± 4.8 nM | 10.2 ± 3.8 nM | significantly inhibited cell migration | –
2 | O=C(/C=C/c1ccccc1)c1ccccc1 [Compound 2a, 1,3-diphenylprop-2-en-1-one] | – | >50,000 nM | >50,000 nM | – | –
3 | COc1cc(C(=O)/C=C/c2ccc3ccccc3c2)ccc1O [Compound 2b, (2e)-3-(2-naphthyl)-1-(3'-methoxy-4'-hydroxy-phenyl)-2-propen-1-one] | – | 2,200 ± 700 nM | 1,100 ± 200 nM | – | –
4 | COc1cc(C(=O)/C=C/c2ccc3ccccc3c2)cc(OC)c1OC [Compound 2c, (2E)-1-(3’,4’,5’-trimethoxyphenyl)-3-(2-naphthyl)-2-propen-1-one] | tubulin disorganization, increased number of phosphohistone H3-positive cells, chromatin condensation, and nuclear fragmentation | 317 ± 23 nM | 283 ± 52 nM | significantly inhibited cell migration | 45 – 100 fold
5 | COc1ccc(/C=C/C(=O)c2ccc3c(c2)OCO3)c(OC)c1OC [Compound 2d, (2E)-1-(1’,3’-benzodioxol-5-yl)-3-(2,3,4-trimethoxyphenyl)-2-propen-1-one] | – | >50,000 nM | >50,000 nM | – | –
6 | COc1cc(C(=O)/C=C/c2ccc(N(C)C)cc2)cc(OC)c1OC [Compound 3a, (2E,Z)-1-(3’,4’,5’-trimethoxyphenyl)-3-(4-dimethylaminophenyl)-2-propen-1-one] | tubulin disorganization, increased number of phosphohistone H3-positive cells, chromatin condensation, and nuclear fragmentation | 217 ± 67 nM | 139 ± 13 nM | significantly inhibited cell migration | 45 – 100 fold
